Values joined by “and” are separate entries in the source; they are usually repeats but may differ in a detail not shown here. Equal entries are not always repeated.
Assays:
AGE-BSA = target: T1, AGE-BSA (Bos taurus, UniProt P02769); assay: In-vitro AGE breaking activity by ELISA (16 weeks AGE-BSA incubated with test compound); type: biochemical, bovine; conditions: for % Breakage: 37°C, 24 hours; for AGE breaking activity compared to PTB / potency (AGE breaking activity compared to PTB): comparison in words based on Table 2
T1 construct: Bovine serum albumin (fraction V) (BSA); from tissue
T1 sequence (P02769 25-607): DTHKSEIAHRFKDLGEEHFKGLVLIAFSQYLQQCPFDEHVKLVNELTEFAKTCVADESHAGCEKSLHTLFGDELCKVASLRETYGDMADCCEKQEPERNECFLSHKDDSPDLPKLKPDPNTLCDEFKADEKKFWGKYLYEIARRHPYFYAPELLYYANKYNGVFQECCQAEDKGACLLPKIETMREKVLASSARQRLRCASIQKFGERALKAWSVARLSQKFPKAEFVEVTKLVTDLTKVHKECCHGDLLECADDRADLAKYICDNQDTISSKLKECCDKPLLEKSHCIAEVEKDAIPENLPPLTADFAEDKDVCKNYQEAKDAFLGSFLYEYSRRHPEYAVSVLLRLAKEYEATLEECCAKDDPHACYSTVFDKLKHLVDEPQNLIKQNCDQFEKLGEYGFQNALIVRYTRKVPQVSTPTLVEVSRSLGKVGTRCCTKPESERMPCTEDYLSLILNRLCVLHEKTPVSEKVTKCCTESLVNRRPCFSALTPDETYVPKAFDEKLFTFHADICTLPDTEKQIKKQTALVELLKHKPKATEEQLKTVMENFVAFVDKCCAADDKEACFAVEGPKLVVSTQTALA
Procedure: AGE breaking activity has been confirmed by the screening procedure as mentioned below: • Materials: • Bovine serum albumin (fraction V) (BSA) • Glucose, analytical grade • Phosphate buffered saline (PBS) • Equipment: • Microplate ELISA Reader - Spectramax Plus (Molecular Devices, USA) • Microplate washer, (Bio -Tec Instruments, USA) • pH meter • Methods of experiment: Elisa (Enzyme Linked Immunosorbent Assay) 160 mg/ml of protein, bovine serum albumin, BSA and 1.6M glucose sugar were dissolved in phosphate buffered saline, PBS. Sodium azide was added at 0.02% concentration as a preservative. The solution was filtered asceptically through a 0.22 µM filter and kept for aging at 37°C for 16 weeks. After 16 weeks the solution was dialyzed against PBS, aliquoted and stored at - 20°C.
To determine the AGE breaking activity, 10 µg/ml of the 16 weeks AGE-BSA was incubated with different concentrations of the test compounds at 37°C for 24 hours and AGE breaking activity of the test compounds by ELISA was determined.
Different concentrations of 16 weeks AGE-BSA were coated on a microtitre plate as standard. Each concentration is coated in triplicates. • 2. The test samples were coated on microtitre plate at a concentration of 5 ng. to 20 ng per well in triplicates. • 3. The plate was incubated at 37°C for one hour. • 4. After incubation the plate was washed with PBST (PBS with 0.05% Tween 20). • 5. Blocking with 5% skimmed milk in PBS at 37°C for one hour was done. • 6. The plate was washed with PBST. • 7. Primary antibody against AGE-BSA was added and the plate is incubated at 37°C for one hour. • 8. The plate was washed with PBST • 9. Secondary antibody anti rabbit HRPO (Horse-Radish Per Oxidase) conjugate was added and the plate is incubated at 37°C for one hour. • 10. The plate was washed with PBST. • 11. Colour development with OPD (orthophenylenediamine dihydrochloride) and hydrogen peroxide was done. • 12. OD (optical density) at (450nm reading - 620nm reading) was measured after incubation at 37°C for 15 minutes with Microplate ELISA Reader.
The breaker activity of the compounds were determined by the following formula: % Breaker activity =(OD450-620 Control - OD450-620 Test)/(OD450-620 Control)x 100 [formula] OD450-620Control= Absorbance of 20ng AGE-BSA after incubation at 37°C for 24 hours without test compound OD450-620Test= Absorbance of 20ng AGE-BSA after incubation at 37°C for 24 hours with required concentration of test compound

[1] = Free radical scavenging activity on ABTS radical cation (absorbance at 730nm); type: biochemical
Procedure: This method measures the relative ability of free radical scavenging substances to scavenge the ABTS ^.+ i.e. 2,2-Azino-bis-(3-ethyl benzo thiazoline-6-sulfonate) radical cation as compared to a standard amount of standard or free radical scavengers antioxidants. Incubation of ABTS with Peroxidase (metmyoglobin) and hydrogen peroxide results in the production of radical cation ABTS^.+ . This species is blue- green in colour and can be detected at 730nm. Antioxidants or free radical scavengers in the added sample that causes suppression of the color to a degree that is proportional to their concentration.
• A. Phosphate Citrate Buffer (pH 5.0): 48.5ml of 0.1M citric acid with sufficient 0.2M disodium hydrogen phosphate to produce 100 ml. • B. Phosphate Buffer Saline (PBS): Dissolve 40.0g of NaCl, 1.0g of KCI, 1.0g of KH2PO4 and 3.05g of Na2HPO4 in 1 litre milli-Q water. Dilute 200ml of above solution to 1 litre with milli-Q water (pH 7.4-7.6). • C. 3µM stock solution of Peroxidase was prepared in phosphate buffer saline pH 7.4(PBS). • D. 1.08 mM stock solution of Hydrogen peroxide was prepared in phosphate buffer saline pH 7.4 (PBS).
1 tablet (10mg) was dissolved in phosphate citrate buffer (pH 5.0).
5.0ml of ABTS stock solution was diluted with PBS to 20 ml.
320 µg of the enzyme was dissolved in 2.5 ml of PBS.
12µl of Hydrogen Peroxide (30%w/v) was diluted to 100ml with PBS.
0.1mM of stock solution of the drug was prepared which was serially diluted in PBS to get solutions of different concentrations.
To 18ml of ABTS stock solution, 100µl of Horseradish Peroxidase stock solution was added.
As soon as 1.5 ml of hydrogen peroxide solution was added to the above solution, blue-green colour of the ABTS radicals appeared. This solution was incubated at 30°C for 30 min.
980µl of ABTS radical stock solution was added to an eppendorf tube. To it was added 100µl of various PBS solution.
980µl of ABTS radical stock solutions were added to different eppendorf tubes. To it were added 100µl of various concentrations of drug solution.
The absorbance of control and test samples was recorded immediately at 730nm taking PBS as blank.
Calculation: The percent antioxidant activity was calculated according to the formula: % Antioxidant activity = [O.D of test sample/O.D of control*100]-100.

Maillard reaction = assay: AGE inhibiting activity, Method I (BSA + ribose, fluorescence); type: biochemical; conditions: 37° C for 7 days
Procedure: The following method was used to determine the inhibitory effect of the test compound on Maillard reaction in-vitro.
Addition of compound was done in aseptic conditions. Sodium azide (0.02%) was also added in this solution in order to prevent microbial growth. A separate tube containing BSA, ribose and sodium azide in the same concentration and buffer as above, but without any test compound, was also incubated as positive control.
After incubation at 37° C for 7 days, 40 micro litre sample from each tube was removed and diluted with PBS to have final concentration of BSA at 1mg/ml. The fluorescence of all the samples was measured at Excitation Maximum of 355nM and the Emission Maximum of 460nM using f-MAX Fluorimeter (Molecular Device, USA). In order to study the effect of test compound on fluorescence, freshly prepared compound solution was mixed with previously incubated positive control (i.e. BSA + ribose), so as to achieve same concentration of all the components as that of test samples.
The percent inhibition of test compound was measured as follows: % Inhibition =(F4 - F3)/(F4)X 100 [formula] Where F3 = Fluorescence of BSA + ribose + compound,F4 is fluorescence of incubated (BSA + ribose) + freshly added test compound.

SMILES	% Breakage (AGE-BSA; 10 mM test compound) [%]	Relative Free Radical Scavenging Activity(%) on ABTS ([1]; 11.5µM) [%]	Relative Free Radical Scavenging Activity(%) on ABTS ([1]; 23.0µM) [%]	Relative Free Radical Scavenging Activity(%) on ABTS ([1]; 46.0µM) [%]	Relative Free Radical Scavenging Activity(%) on ABTS ([1]; 92.5µM) [%]	Relative Free Radical Scavenging Activity(%) on ABTS ([1]; 925µM) [%]	AGE breaking activity compared to PTB (AGE-BSA)	potency (AGE breaking activity compared to PTB) (AGE-BSA)	other results
Cc1ccc(C(=O)C[n+]2cccc(C(=O)NNS(C)(=O)=O)c2)s1.[Cl-] [Compound 63, 1-(2-(5-methylthien-2-yl)-2-oxoethyl)-3-(methanesulfonyl hydrazinocarbonyl) pyridinium chloride]	25.17	10.75	47.20	88.64	99.18				%Inhibition (Day 7) (Maillard reaction; 6.25mM): 58.15%
COCCNC(=O)c1ccc[n+](CC(=O)c2ccc(Cl)cc2Cl)c1.[Br-] [Compound 38, 1-(2', 4'-dichlorophenyl-2-oxoethyl)-3-(2-methoxyethylaminocarbonyl)-pyridinium bromide]		47.2	54.8	71.0	89.5	100			% Breakage (AGE-BSA; 5 mM test compound): 17.66%
CS(=O)(=O)NNC(=O)c1ccc[n+](CC(=O)c2ccc(Cl)s2)c1.[Br-] [Compound 55, 1-(2-(5-chlorothien-2-yl)-2-oxoethyl)-3-(methanesulfonyl hydrazinocarbonyl) pyridinium bromide]	40.85	46.47	84.97	99.50	99.93				
CCOC(=O)NNC(=O)c1ccc[n+](CC(=O)c2cccs2)c1 [Compound 54, 1-(2-thien-2'-yl-2-oxoethyl)-3-(ethoxycarbonyl hydrazinocarbonyl) pyridinium bromide]	33.43	5.22	15.45	46.82	77.07				%Inhibition (Day 7) (Maillard reaction; 2.5mM): 46.3%
O=C(NNS(=O)(=O)C(F)(F)F)c1ccc[n+](CC(=O)c2cccs2)c1 [Compound 68, 1-(2-thien-2'-yl-2-oxoethyl)-3-(trifluoromethanesulfonyl hydrazinocarbonyl) - pyridinium bromide]	92.64	38.47	43.54	89.32	95.07		superior	significantly much higher	
COCCOC(=O)c1ccc[n+](CC(=O)c2ccc(Cl)cc2Cl)c1 [Compound 22, 1-(2-(2', 4'-dichlorophenyl)-2-oxoethyl)-3-(2(methoxy)ethyloxycarbonyl) pyridinium bromide]	13	27.9	50.9	69.3	79.7	100			% Breakage (AGE-BSA; 25 mM test compound): 41%
CS(=O)(=O)NNC(=O)c1ccc[n+](CC(=O)c2cccs2)c1.[Cl-] [Compound 45, 1-(2-thien-2'-yl-2-oxoethyl)-3-(methanesulfonyl hydrazinocarbonyl) pyridinium chloride]	17.53	53.9	56.2	78.7	99.8	100			
CS(=O)(=O)NNC(=O)c1ccc[n+](CC(=O)N2CCC(Cc3ccccc3)CC2)c1.[Cl-] [Compound 51, 1-(2-(4-benzylpiperidin-1-yl)-2-oxoethyl)-3-(methanesulfonyl hydrazinocarbonyl) pyridinium chloride]	20.94	0.00	21.64	52.82	83.94				
CCOC(=O)C[n+]1cccc(C(=O)NCCOC(=O)c2ccccc2)c1.[Br-] [Compound 7, 1-(2-ethoxy-2-oxoethyl) -3-(2-(benzoyloxy)ethylaminocarbonyl) pyridinium bromide]									% Breakage (AGE-BSA; 20 mM test compound): 36%; %Inhibition (Day 7) (Maillard reaction; 10mM): 51%
CS(=O)(=O)NNC(=O)c1ccc[n+](CC(=O)c2cc([N+](=O)[O-])cs2)c1.[Br-] [Compound 64, 1-(2-(4-nitrothien-2-yl)-2-oxoethyl)-3-(methanesulfonyl hydrazinocarbonyl) pyridinium bromide]	60.94					100	superior	significantly much higher	Relative Free Radical Scavenging Activity(%) on ABTS ([1]; 11.5µM, listed as Compound No.64, 11.5 µM): 41.8% and 26.01%; Relative Free Radical Scavenging Activity(%) on ABTS ([1]; 23.0µM, listed as Compound No.64, 23 µM): 55.7% and 57.39%; Relative Free Radical Scavenging Activity(%) on ABTS ([1]; 46.0µM, listed as Compound No.64, 46 µM): 72.2% and 99.30%; Relative Free Radical Scavenging Activity(%) on ABTS ([1]; 92.5µM, listed as Compound No.64, 92.5 µM): 99.0% and 99.62%
O=C(C[n+]1cccc(C(=O)NNc2ccccc2)c1)Nc1ccccc1.[Cl-] [Compound 65, 1-(2-phenylamino-2-oxoethyl)-3-(phenyl hydrazinocarbonyl) pyridinium chloride]		27.67	59.20	94.14	100.00		superior	significantly much higher	% Breakage (AGE-BSA; 2.5 mM test compound): 68.35%
CS(=O)(=O)NNC(=O)c1ccc[n+](CC(=O)c2ccc([N+](=O)[O-])s2)c1 [Compound 67, 1-2-(5-nitro-thien-2-yl)-2-oxoethyl)-3-(methanesulfonyl hydrazino carbonyl) pyridinium chloride]		13.11	50.70	97.46	99.43		superior	significantly much higher	% Breakage (AGE-BSA; 1 mM test compound): 42.01%
CC(C)S(=O)(=O)NNC(=O)c1ccc[n+](CC(=O)c2cccs2)c1 [Compound 50, 1-(2-thien-2'-yl-2-oxoethyl)-3-(isopropylsulfonyl hydrazinocarbonyl) pyridinium bromide]	31.45	3.30	23.06	54.95	89.31		superior		

Source: EP1304101A1, “Composition and method for use of pyridinium derivatives in cosmetic and therapeutic applications” (Torrent Pharmaceuticals Ltd, priority 2001, dated 2003)
